Assays:
[1] = target: T1, VEGF-R2 (Rattus norvegicus, UniProt O08775); experiment: VEGF-R2 kinase screening assay (33P-ATP FlashPlate); assay type: biochemical; conditions: rat VEGF-R2 kinase domain; 10 μM ATP; 1 hr at 30° C;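 also: Read-out is ³³P incorporation from ³³P-γ-ATP into biotinylated peptide substrate captured on streptavidin FlashPlate, counted by scintillation, 1% DMSO final, inhibition scaled between per-plate maximum and minimum signals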
T1 construct: polyhistidine (N)

[2] = target: T2, CDK1 (Homo sapiens, UniProt P06493); experiment: CDK-1 kinase screening assay (33P-ATP FlashPlate); assay type: biochemical; conditions: human CDK1 with cyclin B; 10 μM ATP; 1 hr at 30° C
T2 construct: purchased New England Biolabs, Beverly, Mass; 6020; host or cells: insect cells
T2 sequence (P06493 whole entry): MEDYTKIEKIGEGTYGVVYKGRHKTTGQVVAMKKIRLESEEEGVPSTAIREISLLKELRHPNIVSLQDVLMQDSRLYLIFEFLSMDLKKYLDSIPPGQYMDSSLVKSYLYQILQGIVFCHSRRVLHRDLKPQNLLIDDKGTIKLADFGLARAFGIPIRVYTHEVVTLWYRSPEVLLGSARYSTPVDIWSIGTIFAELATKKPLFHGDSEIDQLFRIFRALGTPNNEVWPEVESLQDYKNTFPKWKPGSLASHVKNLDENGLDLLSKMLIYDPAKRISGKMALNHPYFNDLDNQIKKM
T2 sequence (P14635 whole entry partner): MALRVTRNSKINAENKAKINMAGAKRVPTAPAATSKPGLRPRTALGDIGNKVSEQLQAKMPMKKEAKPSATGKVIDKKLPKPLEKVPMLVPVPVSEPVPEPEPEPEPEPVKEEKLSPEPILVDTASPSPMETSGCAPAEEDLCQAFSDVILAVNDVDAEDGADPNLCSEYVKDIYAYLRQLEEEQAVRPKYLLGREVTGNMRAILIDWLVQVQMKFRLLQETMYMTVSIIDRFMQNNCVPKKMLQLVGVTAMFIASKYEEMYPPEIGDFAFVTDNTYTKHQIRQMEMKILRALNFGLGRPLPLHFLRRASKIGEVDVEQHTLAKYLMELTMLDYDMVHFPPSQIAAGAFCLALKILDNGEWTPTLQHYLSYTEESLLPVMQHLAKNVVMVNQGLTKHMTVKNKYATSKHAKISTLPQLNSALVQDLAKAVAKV
Description: A kinase reaction mixture was prepared containing 50 mM Tris-HCl pH=8, 10 mM MgCl2, 0.1 mM […], 1 mM DTT, 10 μM ATP, 0.025 μM biotinylated histone-H1 peptide substrate and 0.2 μCuries per well ^33P-γ-ATP (2000-3000 Ci/mmol). 70 μL of the kinase reaction mixture was dispensed into the well of a streptavidin coated FlashPlate™ (Cat. # SMP103, NEN, Boston, Mass.).
Test compound stock in 100% DMSO (1 μL) was added to the wells resulting in a final concentration of 1% DMSO in the reaction with a 100 μL final reaction volume. Each enzyme was diluted in 50 mM Tris-HCl pH=8.0, 0.11% BSA and 30 μL was added to each well to initiate the reaction. The reaction was incubated for one hour at 30° C. At the end of the 1 hr incubation, the reaction was terminated by aspirating the mixture from the plate and washing the wells twice with PBS containing 100 mM EDTA. The biotinylated peptide substrate became immobilized on the Flashplate™ and the incorporation of ^33P-γ-ATP was measured by reading the plate on a scintillation counter. Inhibition of the enzymatic activity was measured by observing a reduced amount of ^33P-γ-ATP incorporated into the immobilized peptide.
The CDK1 enzyme was isolated from insect cells expressing both the human CDK1 catalytic subunit (Accession number NM_001786) and its positive regulatory subunit cyclin B (New England Biolabs, Beverly, Mass.; Cat. # 6020). The assay used 30 ng of the N-terminal biotinylated peptide biotin-[…]-amide (Cyclin dependent kinase 1) per well.
A maximum and minimum signal for the assay was determined on each plate. The percent inhibition of a test compound was calculated according to the formula: […]
For a series of test concentrations, the IC50 was derived by graphing percent inhibition against the log of the concentrations tested for a given compound with results shown in Table 1.
For compounds with multiple values, each value represents a separate assay result.

[3] = target: T3, HER2 (Homo sapiens, UniProt P04626); experiment: HER2 kinase screening assay (33P-ATP FlashPlate); assay type: biochemical; conditions: GST-HIS6 HER-2 aa 679 to 1255; 10 μM ATP; 1 hr at 30° C;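 also: Biotin-poly(GT) 4:1 peptide captured on streptavidin FlashPlate, 33P transfer from γ-ATP read by scintillation counting, lower incorporation means inhibition, 1% DMSO final, 100 µL reaction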
T3 construct: GST (Glutathione-S-Transferase) (N); HIS6 (N); thrombin cleavage site (N); purchased Proqinase, Freiburg, Germany
T3 sequence (P04626 679-1255): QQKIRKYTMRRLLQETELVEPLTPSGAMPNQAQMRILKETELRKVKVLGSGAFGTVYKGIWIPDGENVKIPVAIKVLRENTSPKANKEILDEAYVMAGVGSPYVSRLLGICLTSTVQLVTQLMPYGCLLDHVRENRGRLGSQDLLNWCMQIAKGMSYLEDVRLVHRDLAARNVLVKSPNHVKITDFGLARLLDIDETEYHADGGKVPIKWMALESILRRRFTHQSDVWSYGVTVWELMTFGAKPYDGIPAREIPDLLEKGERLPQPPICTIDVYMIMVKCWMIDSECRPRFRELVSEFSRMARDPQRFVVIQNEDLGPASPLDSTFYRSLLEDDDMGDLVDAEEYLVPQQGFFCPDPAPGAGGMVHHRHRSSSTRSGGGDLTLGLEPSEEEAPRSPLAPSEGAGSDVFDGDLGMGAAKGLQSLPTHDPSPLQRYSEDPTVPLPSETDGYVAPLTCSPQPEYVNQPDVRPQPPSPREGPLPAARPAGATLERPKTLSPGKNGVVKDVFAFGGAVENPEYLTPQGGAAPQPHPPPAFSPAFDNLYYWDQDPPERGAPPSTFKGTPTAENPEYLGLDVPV

[4] = tested on: HCT-116 colon carcinoma; experiment: Cell Proliferation Inhibition Assay (14C-thymidine incorporation), HCT-116; assay type: cell-based; conditions: Homo sapiens;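 also: proliferation measured as methyl 14C-thymidine uptake into new DNA, counted in 96-well scintillating microplates, compared with DMSO-only control wells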
[5] = tested on: A375 malignant melanoma; experiment: Cell Proliferation Inhibition Assay (14C-thymidine incorporation), A375; assay type: cell-based; conditions: Homo sapiens, A-375, A375 cells;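 also: proliferation measured by radiolabelled thymidine uptake into new DNA, counted in scintillating 96-well plates, compound-treated wells compared with DMSO-only control wells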
[6] = tested on: HeLa cervical adenocarcinoma; experiment: Cell Proliferation Inhibition Assay (14C-thymidine incorporation), HeLa; assay type: cell-based; conditions: Homo sapiens, HeLa cells;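 also: test compound in DMSO added to cells seeded in scintillating 96-well plates, DMSO-only wells as control, uptake of methyl 14C-thymidine into new DNA counted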
[7] = target: T4, Aurora-A (Mus musculus, UniProt P97477); experiment: Aurora-A kinase screening assay (33P-ATP FlashPlate); assay type: biochemical; conditions: 10 μM ATP, 1 hr at 30° C;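 also: His-tagged mouse Aurora-A phosphorylating a biotinylated peptide captured on streptavidin plates, read as 33P uptake by scintillation counting, 1% DMSO, inhibition scaled between per-plate maximum and minimum signals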
T4 construct: polyhistidine (N)
T4 sequence (P97477 1-395): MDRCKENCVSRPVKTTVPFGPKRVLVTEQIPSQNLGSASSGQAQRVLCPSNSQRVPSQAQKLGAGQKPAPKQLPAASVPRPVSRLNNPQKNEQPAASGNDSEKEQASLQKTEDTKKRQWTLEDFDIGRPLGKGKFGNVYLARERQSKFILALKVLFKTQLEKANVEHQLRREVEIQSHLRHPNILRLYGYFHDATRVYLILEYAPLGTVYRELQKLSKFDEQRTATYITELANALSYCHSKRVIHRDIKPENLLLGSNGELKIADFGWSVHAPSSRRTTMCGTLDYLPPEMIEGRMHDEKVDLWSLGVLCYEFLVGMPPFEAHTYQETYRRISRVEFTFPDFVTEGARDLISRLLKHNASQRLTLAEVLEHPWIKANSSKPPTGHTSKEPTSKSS

T1 sequence (O08775 786-1343): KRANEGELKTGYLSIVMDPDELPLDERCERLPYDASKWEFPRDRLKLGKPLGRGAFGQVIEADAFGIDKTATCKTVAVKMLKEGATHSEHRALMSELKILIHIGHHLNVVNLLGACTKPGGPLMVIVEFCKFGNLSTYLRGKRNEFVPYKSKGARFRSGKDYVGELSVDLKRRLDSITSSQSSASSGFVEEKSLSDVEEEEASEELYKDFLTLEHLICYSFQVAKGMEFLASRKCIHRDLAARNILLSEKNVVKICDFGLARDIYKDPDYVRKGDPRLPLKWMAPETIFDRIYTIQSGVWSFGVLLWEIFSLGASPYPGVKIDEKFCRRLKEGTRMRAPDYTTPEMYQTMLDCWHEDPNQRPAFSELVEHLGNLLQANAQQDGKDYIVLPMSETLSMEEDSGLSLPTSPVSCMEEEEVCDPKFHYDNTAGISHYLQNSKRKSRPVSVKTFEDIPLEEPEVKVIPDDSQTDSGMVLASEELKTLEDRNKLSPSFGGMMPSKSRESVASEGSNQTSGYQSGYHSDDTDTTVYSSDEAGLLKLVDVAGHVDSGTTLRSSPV

Row | Compound | IC50 [1] [nM] | IC50 [2] [nM] | IC50 [3] [nM] | IC50 ([4]; HCT-116, HCT-116 cells) [nM] | IC50 [5] [nM] | IC50 ([6]; HeLa) [nM] | IC50 [7] [nM] | IC50 ([4]; HCT-116 cells) [nM] | IC50 [6] [nM]
1 | c1ccc2c(-c3cnc4[nH]nc(-c5nc6ccccc6[nH]5)c4c3)cncc2c1 [Cpd 1, 4-[3-(1H-benzoimidazol-2-yl)-1H-pyrazolo[3,4-b]pyridin-5-yl]-isoquinoline] | 1460 | 23.3 | 141 |  |  |  |  |  | 
2 | Cc1cccc2[nH]c(-c3n[nH]c4ncc(-c5cncc6ccccc56)cc34)nc12 [Cpd 2, 4-[3-(4-methyl-1H-benzoimidazol-2-yl)-1H-pyrazolo[3,4-b]pyridin-5-yl]-isoquinoline] |  | 96.7 |  | 1640 | 1720 | 3090 |  |  | 
3 | CCN(CC)Cc1cccc2[nH]c(-c3n[nH]c4ncc(-c5cncc6ccccc56)cc34)nc12 [Cpd 5, diethyl-[2-(5-isoquinolin-4-yl-1H-pyrazolo[3,4-b]pyridin-3-yl)-1H-benzoimidazol-4-ylmethyl]-amine] | 1550 |  |  | 30.6 | 46.7 | 28.9 |  |  | 
4 | COCc1cccc2[nH]c(-c3n[nH]c4ncc(Br)cc34)nc12 [Cpd 11, 5-bromo-3-(4-methoxymethyl-1H-benzoimidazol-2-yl)-1H-pyrazolo[3,4-b]pyridine] | 916 | 358 |  | 866 | 866 | 1840 | ~10000 |  | 
5 | CC(C)NC(=O)c1cccc2[nH]c(-c3n[nH]c4ncc(-c5cncc6ccccc56)cc34)nc12 [Cpd 18, 2-(5-isoquinolin-4-yl-1H-pyrazolo[3,4-b]pyridin-3-yl)-1H-benzoimidazole-4-carboxylic acid isopropylamide] | 378 | 3.95 | > 10000 | 41.5 | 64.7 | 35.2 | > 100 |  | 
6 | CCN(CC)C(=O)c1cccc2[nH]c(-c3n[nH]c4ncc(-c5cncc6ccccc56)cc34)nc12 [Cpd 19, 2-(5-isoquinolin-4-yl-1H-pyrazolo[3,4-b]pyridin-3-yl)-1H-benzoimidazole-4-carboxylic acid diethylamide] | ~10000 | 53.4 | ~100000 | 1830 | 1570 | 975 | > 1000 |  | 
7 | CCCNCc1cncc(-c2cnc3[nH]nc(-c4nc5cc(N6CCN(C)CC6)ccc5[nH]4)c3c2)c1 [Cpd 85, (5-{3-[5-(4-methyl-piperazin-1-yl)-1H-benzoimidazol-2-yl]-1H-pyrazolo[3,4-b]pyridin-5-yl}-pyridin-3-ylmethyl)-propyl-amine] | 160 | 1.84 | 1840 |  | 412 |  | 280 | 774 | 692
8 | COCCNCc1cncc(-c2cnc3[nH]nc(-c4nc5cc(N6CCN(C)CC6)ccc5[nH]4)c3c2)c1 [Cpd 86, (2-methoxy-ethyl)-(5-{3-[5-(4-methyl-piperazin-1-yl)-1H-benzoimidazol-2-yl]-1H-pyrazolo[3,4-b]pyridin-5-yl}-pyridin-3-ylmethyl)-amine] | ~100 | 5.17 | 1050 |  | 2490 |  | 428 | 2320 | 2290
9 | CCCNCc1cncc(-c2cnc3[nH]nc(-c4nc5cc(OC)ccc5[nH]4)c3c2)c1 [Cpd 103, {5-[3-(5-methoxy-1H-benzoimidazol-2-yl)-1H-pyrazolo[3,4-b]pyridin-5-yl]-pyridin-3-ylmethyl}-propyl-amine] | 47.6 | 0.4 | 2160 |  | 39.2 |  | 270 | 33.5 | 62.3

More lines, main results first:

Row | IC50 [1] [nM] | IC50 [2] [nM] | IC50 [3] [nM] | IC50 ([4]; HCT-116, HCT-116 cells) [nM] | IC50 [5] [nM] | IC50 ([6]; HeLa) [nM] | IC50 [7] [nM] | Compound | IC50 ([4]; HCT-116 cells) [nM] | IC50 [6] [nM]
10 | ~10000 | 28.6 | > 10000 | 55 | 71.1 | 167 | ~1000 | CC(C)(C)NC(=O)c1cccc2[nH]c(-c3n[nH]c4ncc(-c5cncc6ccccc56)cc34)nc12 [Cpd 20, 2-(5-isoquinolin-4-yl-1H-pyrazolo[3,4-b]pyridin-3-yl)-1H-benzoimidazole-4-carboxylic acid tert-butylamide] |  | 
11 | 238 | 425 | > 10000 | 2500 | 1700 | 3100 | ~1000 | CN1CCN(c2ccc3[nH]c(-c4n[nH]c5ncc(Br)cc45)nc3c2)CC1 [Cpd 30, 5-bromo-3-[5-(4-methyl-piperazin-1-yl)-1H-benzoimidazol-2-yl]-1H-pyrazolo[3,4-b]pyridine] |  | 
12 | 160 | 29.3 | > 100000 | 18.8 | 32.8 | 650 | > 1000 | COCc1cccc2[nH]c(-c3n[nH]c4ncc(-c5cccnc5)cc34)nc12 [Cpd 35, 3-(4-methoxymethyl-1H-benzoimidazol-2-yl)-5-pyridin-3-yl-1H-pyrazolo[3,4-b]pyridine] |  | 
13 | > 10 | 87.5 | > 100000 | 5 | 20.1 | 1840 | 191 | COCc1cccc2[nH]c(-c3n[nH]c4ncc(-c5c[nH]c6ncccc56)cc34)nc12 [Cpd 37, 3-(4-methoxymethyl-1H-benzoimidazol-2-yl)-5-(1H-pyrrolo[2,3-b]pyridin-3-yl)-1H-pyrazolo[3,4-b]pyridine] |  | 
14 | 4670 | 106 |  |  |  |  | 8020 | CCNCc1cncc(-c2cnc3[nH]nc(-c4nc5c(COC)cccc5[nH]4)c3c2)c1C [Cpd 59, ethyl-{5-[3-(4-methoxymethyl-1H-benzoimidazol-2-yl)-1H-pyrazolo[3,4-b]pyridin-5-yl]-4-methyl-pyridin-3-ylmethyl}-amine] |  | 
15 | 113 | 29.3 | 12100 | 1050 | 807 | 2150 | 445 | CN1CCN(c2ccc3[nH]c(-c4n[nH]c5ncc(-c6cncc(CN7CCCC7)c6)cc45)nc3c2)CC1 [Cpd 87, 3-[5-(4-methyl-piperazin-1-yl)-1H-benzoimidazol-2-yl]-5-(5-pyrrolidin-1-ylmethyl-pyridin-3-yl)-1H-pyrazolo[3,4-b]pyridine] |  | 
16 |  | 11.2 |  | 386 | 428 | 826 |  | COC(=O)c1ccc2[nH]c(-c3n[nH]c4ncc(-c5cccnc5)cc34)nc2c1 [Cpd 91, 2-(5-pyridin-3-yl-1H-pyrazolo[3,4-b]pyridin-3-yl)-3H-benzoimidazole-5-carboxylic acid methyl ester] |  | 
17 |  |  |  | ≥ 100000 | ≥ 100000 | ≥ 100000 |  | COC(=O)c1cccc2[nH]c(-c3n[nH]c4ncc(-c5cccnc5)cc34)nc12 [Cpd 93, 2-(5-pyridin-3-yl-1H-pyrazolo[3,4-b]pyridin-3-yl)-1H-benzoimidazole-4-carboxylic acid methyl ester] |  | 
18 | ~100 | 1.6 | 7060 | 237 | 52.5 | 55.1 | ~10000 | CNCc1cncc(-c2cnc3[nH]nc(-c4nc5cc6c(cc5[nH]4)OC(F)(F)O6)c3c2)c1 [Cpd 100, {5-[3-(2,2-difluoro-5H-[1,3]dioxolo[4′,5′:4,5]benzo[1,2-d]imidazol-6-yl)-1H-pyrazolo[3,4-b]pyridin-5-yl]-pyridin-3-ylmethyl}-methyl-amine] |  | 
